Type in all cases: cell-based
The test system of assay [1] is hepatocellular carcinoma cell line Hep3B. The experiment in a line: Growth inhibition of Hep3B cells, 48 hr treatment, Hoechst 33342 nucleus count (GE InCell 2200). The conditions noted are these: Homo sapiens. In short, it runs like this: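 Compound exposure lasted 48 hr at 37° C, 5% CO2. Surviving nuclei were counted after Hoechst 33342 staining, and survival was expressed as the treated/non-treated cell number ratio, including the ratio at 10 μM compound.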

The test system of assay [2] is Hep3B hepatocellular carcinoma cell line. The experiment in a line: MTS cell viability assay (NCI-60 methodology), GI50/LC50, Hep3B. The following applies: Homo sapiens, 48 h, Hep3B cells, 2 days incubation with compound. In short, it runs like this:
(§1)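 Cells were plated 24 h before treatment, and a time-zero plate was read by MTS. Five 2-fold dilutions plus DMSO were then added for 48 h, and viability was measured by MTS. GI50 is from [(Ti−Tz)/(C−Tz)]×100=50 and LC50 from [(Ti−Tz)/Tz]×100=−50.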

In assay [3] the test system is SW480 colon adenocarcinoma cell line. The experiment in a line: MTS cell viability assay (NCI-60 methodology), GI50/LC50, SW480. The following applies: Homo sapiens, 48 h, SW480 cells, 2 days incubation with compound. In a few lines: as §1
(Tetrazolium assays rely on reduction of a dye to a coloured formazan, in cell work by metabolically active cells.)

Assay [4] has as its system NCI-H460 human lung cancer cell line. Nature of the assay: MTS cell viability assay (NCI-60 methodology), GI50/LC50, NCI-H460. The following applies: 48 h, NCI-H460 cells, 2 days incubation with compound. In short, it runs like this:
as §1

Where [5] appears, read: Table 1, ratio of number of tumor cells treated with 10 μM compound to non-treated cells.
[6] abbreviates: Table 5, ratio of number of tumor cells treated with 10 μM compound to non-treated cells.

Take `CCOc1ccc(-c2nc(NC(=O)c3ccc([N+](=O)[O-])s3)sc2Cc2ccccc2)cc1` [Compound 6-34, N-(5-benzyl-4-(4-ethoxyphenyl)thiazol-2-yl)-5-nitrothiophene-2-carboxamide]: the viability (commonly a read-out of living cells in per cent, often relative to untreated cells) at 10 µM in assay [1] (Table 6, ratio of number of tumor cells treated with 10 μM compound to non-treated cells) came out at 44%. The values for the GI50 in assay [2], in assay [3] and in assay [4] were 1.01 µM, 2.51 µM and 1.4 µM, respectively. For the same molecule, in assay [2], the LC50 (as a rule, the concentration lethal to half of the exposed cells or organisms) was 7.53 µM.

With `CCCCOc1cc(OCC)ccc1-c1nnc(NC(=O)Cc2ccc3nc(N)sc3c2)s1` [Compound 1-23, 2-(2-aminobenzo[d]thiazol-6-yl)-N-(5-(2-butoxy-4-ethoxyphenyl)-1,3,4-thiadiazol-2-yl)acetamide], the viability at 10 µM in assay [1] (setting [5]) worked out at 71%. Also, in assay [2], the concentration for 50% growth inhibition (GI50) (usually the concentration giving 50% growth inhibition) was found to be 0.48 µM and the median lethal concentration (LC50) is 0.48 µM. In addition, in assay [3], the concentration for 50% growth inhibition (GI50) was determined as 0.52 µM and the LC50 (NCI-60 lethal concentration, 50% net cell loss vs time zero) stood at 0.52 µM. In assay [4], the concentration for 50% growth inhibition (GI50) was 0.58 µM and the LC50 (concentration giving 50% net cell loss versus time zero, NCI-60 definition) was 0.58 µM.

For `CCOc1ccc(-c2nc(NC(=O)c3ccc([N+](=O)[O-])s3)sc2Oc2ccccc2)cc1` [Compound 5-6, N-(4-(4-ethoxyphenyl)-5-phenoxythiazol-2-yl)-5-nitrothiophene-2-carboxamide], in assay [1] (setting [6]), the viability at 10 µM is 42%. Moreover, in assay [2], the GI50 was 1.1 µM and the 50% lethal concentration (LC50) was found to be 4.35 µM. Also, in assay [3], the 50% growth inhibitory concentration (GI50) was found to be 2.59 µM and the LC50 (NCI-60 lethal concentration, 50% net cell loss vs time zero) stood at 5.52 µM. Besides, in assay [4], the concentration for 50% growth inhibition (GI50) was 1.17 µM and the LC50 (concentration giving 50% net cell loss versus time zero, NCI-60 definition) was found to be 3.99 µM.

As to `CC(C)(C)c1ccc(-c2nc(NC(=O)c3ccc([N+](=O)[O-])s3)sc2Oc2ccc(F)cc2)cc1` [Compound 5-20, N-(4-(4-(tert-butyl)phenyl)-5-(4-fluorophenoxy)thiazol-2-yl)-5-nitrothiophene-2-carboxamide], the viability at 10 µM in assay [1] (setting [6]) came to 62%. In assay [2], the GI50 was found to be 0.79 µM and the LC50 was determined as 2.63 µM. In assay [3], the GI50 turned out to be 0.88 µM and the LC50 (NCI-60 lethal concentration, 50% net cell loss vs time zero) is 3.73 µM. In assay [4], the 50% growth inhibitory concentration (GI50) was found to be 2.76 µM and the LC50 (concentration giving 50% net cell loss versus time zero, NCI-60 definition) amounted to 8.34 µM.

For `Nc1nc2ccc(CC(=O)Nc3nc(-c4ccc(Br)cc4)c(-c4ccc(Br)cc4)s3)cc2s1` [Compound 3-10, 2-(2-aminobenzo[d]thiazol-6-yl)-N-(4,5-bis(4-bromophenyl)thiazol-2-yl)acetamide], in assay [1] (Table 3, ratio of number of tumor cells treated with 10 μM compound to non-treated cells), the viability at 10 µM worked out at 52%. For the same molecule, in assay [2], the GI50 came to 0.51 µM and the 50% lethal concentration (LC50) amounted to 1.29 µM. Besides, in assay [3], the GI50 turned out to be 1.21 µM and the LC50 (NCI-60 lethal concentration, 50% net cell loss vs time zero) turned out to be 7.08 µM. Further, in assay [4], the GI50 turned out to be 0.84 µM and the LC50 (concentration giving 50% net cell loss versus time zero, NCI-60 definition) was 6.62 µM.

Consider `CCOc1cc(OCC)c(-c2nnc(N(C)C(=O)Cc3ccc4nc(N)sc4c3)s2)cn1` [Compound 1-37, 2-(2-aminobenzo[d]thiazol-6-yl)-N-(5-(4,6-diethoxypyridin-3-yl)-1,3,4-thiadiazol-2-yl)-N-methylacetamide], for which the viability at 10 µM in assay [1] (setting [5]) worked out at 47%. Also, the values for the GI50 in assay [2], in assay [3] and in assay [4] were 0.84 µM, 1.26 µM and 1.35 µM, respectively. Further, the LC50 in assay [2] came out at 1.24 µM.

As to `CCCOc1ccc(-c2nc(NC(=O)c3ccc([N+](=O)[O-])s3)sc2Oc2ccc(F)cc2)cc1` [Compound 5-30, N-(5-(4-fluorophenoxy)-4-(4-propoxyphenyl)thiazol-2-yl)-5-nitrothiophene-2-carboxamide], the viability at 10 µM in assay [1] (setting [6]) was found to be 40%. Also, in assay [2], the 50% growth inhibitory concentration (GI50) came out at 0.92 µM and the median lethal concentration (LC50) was determined as 2.23 µM. Besides, in assay [3], the 50% growth inhibitory concentration (GI50) came to 0.53 µM and the LC50 (NCI-60 lethal concentration, 50% net cell loss vs time zero) was 2.82 µM. Also, in assay [4], the GI50 amounted to 0.7 µM and the LC50 (concentration giving 50% net cell loss versus time zero, NCI-60 definition) is 2.15 µM.

Source of the values: patent US11174253B2, “Compound and pharmaceutical composition containing the same” (ALPHALA CO., LTD., priority 2017, dated 2021).
